# Assay results taken from patent US20120122830A1 (King Faisal Specialist Hospital & Research Centre, priority 2008, published 2012).
# Read-outs that look alike come from different tables or passages of the source.
# Legend:
# [1] = rats and mice; Akwa et al. 2001; cited from earlier work
# B104 cells [2] = assay: Necrotic effect of fibrillary form of human Aβ1-42 peptide on B104 cells; assay type: cell-based, Rat
# Procedure: (§1) Rat B104 neuroblastoma is chosen as the cell culture model due to its neuronal phenotype when grown in serum free medium (Schubert et al. Nature 1974; 249: 224-27). B104 cells are routinely grown in flasks of 75 cm^2 with complete culture medium containing Dulbecco's Modified Eagle Medium (DMEM) supplemented with 2 mM L-glutamine, penicillin G (50 U/ml), streptomycin sulfate (50 μg/ml), 10% fetal calf serum, and 5% horse serum. They are sub-cultured every week and the culture medium is changed every three days. Cultures are maintained at 37° C. in a humidified incubator in 90% air and 10% CO2 atmosphere. For the experiments, the cells are plated at the required density, in serum complete medium for 24 H and then the medium is replaced with a serum free one containing or not the desired treatment.
# (§2) Aβ1-42 is obtained from Bachem and prepared in fibril form known to mediate neurotoxicity (Lorenzo et al. Proc Natl Acad Sci USA 1994; 91:12243-47). Aβ1-42 fibrils are produced by dissolving the peptide in double distilled water (ddH2O) to 10 µg/μl, followed by incubation under agitation (300-400 rpm) for one week at 37° C.
# Flow cytometry is utilized to look for the percentage of apoptosis or necrosis that reflects the neurotoxic effect of Aβ1-42 as well as the neuroprotective effect of neurosteroids by staining cells with annexin V that has affinity to phosphatidyl serine (PS) (Van Genderen et al. 2006). In normal viable cells, PS is located on the cytoplasmic side of the cell membrane. However, in apoptotic cells, PS is translocated from the inner to the outer leaflets of the plasma membrane where annexin V could bind to PS. Moreover, annexin V can pass through the compromised membrane of necrotic cells and bind to PS in the anterior of the cell (Van Genderen et al. Nat Protoc 2006; 1:363-67).
# Cells are seeded in 6 well plates at the required density and grown for 24H. They are then treated according to two procedures: either with specific steroids and then Aβ1-42 or with Aβ1-42 followed by steroids. A kinetic study is performed at 6, 12 or 24 H depending on the concentration of the peptide.
# For flow cytometry analysis, cells are washed with PBS and harvested by trypsinization. After centrifugation and resuspension in annexin binding buffer and incubation for 15 min with 5-25 μl of annexin V conjugate, cells are washed with annexin binding buffer and examined by flow cytometry. Data is examined by using appropriate software, and scattergrams are analyzed.
# B104 cells [3] = assay: Neuroprotection by PREGS against fibrillary human Aβ1-42 peptide toxicity on B104 cells; assay type: cell-based, Rat; set-up: protection against Aβ1-42 peptide-induced toxicity: dose or concentration left out as unconfirmed
# Procedure: as §1
# as §2, with “C. […]” for “C.”
# For flow cytometry analysis, cells are washed with PBS and harvested by trypsinization. […] Data is examined by using appropriate software, and scattergrams are analyzed.
# B104 cells [4] = assay: Neurotrophic activity: neuronal outgrowth in B104 cells cultured at low density; assay type: cell-based, Rat; settings: 5 μM PREGS during 7 days, compared to control cells
# Procedure: as §1
# For this purpose, […] acid (95:5), washed and incubated for 30 min in PBS containing 2% bovine serum albumin (BSA) to block non specific binding. Immunostaining of B104 cells is performed for 2 H at room temperature (RT) with appropriate dilutions of primary antibodies. Then, cells are rinsed and incubated with sheep anti-mouse IgG antibodies (Sigma) in PBS/BSA, for 2 H at RT. After being washed, the immunostained cells are examined under microscope (a Leica or Zeiss Axiovert 135M microequipped with an epifluorescence system or optical microscope Nikon Labophot 2).
molecule,measurement,setting,value
CC(=O)[C@@H]1CC[C@@H]2[C@H]3CC=C4C[C@H](OS(=O)(=O)O)CC[C@@]4(C)[C@@H]3CC[C@]21C [ent-PREGS],potency in stimulating memory relative to natural PREGS,[1],more potent
"Aβ1-42: fibrillary form of human β-amyloid peptide Aβ1-42, obtained from Bachem","necrosis, dose dependence",B104 cells [2],significant dose-dependent necrosis
same,necrotic effect,"B104 cells [2]; B104 cells, 10 μM human Aβ1-42 peptide, 6 h, compared to control cells",considerable necrotic effect
same,time after treatment at which necrotic effect was demonstrated,"B104 cells [2]; B104 cells, fAβ1-42",≤ 6 H
same,"necrosis, dose dependence","B104 cells [2]; B104 cells, increasing from 5 μM to 20 μM of fAβ1-42 peptide",significant dose-dependent necrosis
pregnenolone sulfate [PREGS],protection against fAβ1-42 peptide-induced toxicity,"B104 cells [3]; PREGS at 20 μM, 20 μM fAβ1-42 peptide, observed at 24H, maintained until 96H",able to protect
same,protection against Aβ1-42 peptide-induced toxicity,"B104 cells [3]; observed at 24 h, maintained until 96 h",able to protect
same,neuronal cell outgrowth,B104 cells [4],Striking neuronal cell outgrowth
